According to patent publication US20220071985A1, “QUINOLINE DERIVATIVES FOR USE IN THE TREATMENT OR PREVENTION OF CANCER” (ABIVAX, priority 2018, published 2022):

How the values were obtained:
Assay type in all cases: cell-based
[1] = test system: CR3085 cell line (Large intestine/Colorectum); assay: CellTiter-Glo cell viability assay, CR3085; conditions: Homo sapiens
Experimental: (§1) All cell lines are hyman primary cell lines cultured in DMEM/F12+10% FBS+supplemental growth factors, at 37° C. with 5% C02, as explained below. The cell lines are from large intestine/colorectum, stomach, liver, lung or pancreas (see table below). • DMEM/F12 (high glucose) (Gibco, Cat #11320033) • FBS (Cat #FND500, ExCell Bio) • CellTiter-Glo® Luminescent Cell Viability Assay (Cat # G7571, Promega. Stored at −20° C.). • 96 wells plate (Cat #3610, Corning) • DMEM/F12 medium (low glucose): 1:1 mixture of DMEM (low glucose) (Gibco, Cat #11885076) and F-12K (Gibco, Cat #21127022)
(§2) Two types of cell lines have been tested for the compound 26, namely CR3085 (Large intestine/Colorectum) and GA0060 (stomach), as shown below.
(§3) 1. Each well of a 96-well plate contains 90 μL of cell suspension with cells. The number of cells to be seeded is determined on the basis of a Cell Density Optimization Assay. 2. All 96-wells plates with cells are placed in an incubator overnight at 37° C. with 5% CO2.
(§4) 3. Dilute ABX464 and add 10 μL/well of ABX464 at the concentrations indicated (see plate map below). The final volume is 100 μL/well.
(§5) 4. Replace the old medium by pre-prepared fresh medium with ABX464 at the same concentrations indicated. The final volume is 100 μL/well.
(§6) 5. Cells are observed under a microscope ensuring the cells treated with vehicle control are in good condition. 6. Add 50 μL of CellTiter-Glo® Reagent to each well. 7. Mix contents for 2 minutes on an orbital shaker to facilitate cell lysis. 8. Allow the plate to incubate at room temperature for 10 minutes to stabilize luminescent signals. 9. Record luminescence using an EnVision Multi Label Reader.
(§7) Data analysis is performed using GraphPad Prism 7.0. To calculate IC50s, a dose-response curve is generated using a nonlinear regression model with a sigmoidal dose response. The formula of surviving rate is shown below, and the IC50s will be automatically generated by GraphPad Prism 7.0.
(§8) LumNone treated-LumMedium control is set as 100%.

[2] = test system: GA0060 cell line (Stomach); assay: CellTiter-Glo cell viability assay, GA0060; conditions: Homo sapiens
Experimental: as §1, §2, §3, §4, §5, §6, §7, §8

[3] = test system: CR0205 cell line (Large intestine/Colorectum); assay: CellTiter-Glo cell viability assay, CR0205; conditions: Homo sapiens, 168 h, 7 days drug treatment
Experimental: as §1, §3, §4, §5
(§9) 5. Cells are observed under a microscope ensuring the cells treated with vehicle control are in good condition. 6. Add 50 μL of CellTiter-Glo® Reagent to each well. 7. […] Record luminescence using an EnVision Multi Label Reader. […]

[4] = test system: CR3150 cell line (Large intestine/Colorectum); assay: CellTiter-Glo cell viability assay, CR3150; conditions: Homo sapiens, 168 h, 7 days drug treatment
Experimental: as §1, §3, §4, §5, §9

LI0612 cell line (Liver) = assay: CellTiter-Glo cell viability assay, LI0612; conditions: Homo sapiens, 168 h, 7 days drug treatment
Experimental: as §1, §3, §4, §5, §9

LU0387 cell line (Lung) = assay: CellTiter-Glo cell viability assay, LU0387; conditions: Homo sapiens, 168 h, 7 days drug treatment
Experimental: as §1, §3, §4, §5, §9

LU2511 cell line (Lung) = assay: CellTiter-Glo cell viability assay, LU2511; conditions: Homo sapiens, 168 h, 7 days drug treatment
Experimental: as §1, §3, §4, §5, §9

[5] = test system: PA0692 cell line (Pancreas); assay: CellTiter-Glo cell viability assay, PA0692; conditions: Homo sapiens, 168 h, 7 days drug treatment
Experimental: as §1, §3, §4, §5, §9

[6] = test system: PA1266 cell line (Pancreas); assay: CellTiter-Glo cell viability assay, PA1266; conditions: Homo sapiens, 168 h, 7 days drug treatment
Experimental: as §1, §3, §4, §5, §9

[7] = test system: PA1405 cell line (Pancreas); assay: CellTiter-Glo cell viability assay, PA1405; conditions: Homo sapiens, 168 h, 7 days drug treatment
Experimental: as §1, §3, §4, §5, §9

[8] = test system: PA3060 cell line (Pancreas); assay: CellTiter-Glo cell viability assay, PA3060; conditions: Homo sapiens, 168 h, 7 days drug treatment
Experimental: as §1, §3, §4, §5, §9

[9] = 168 h, CR3085, Large intestine/Colorectum, 7 days drug treatment, CellTiter-Glo
[10] = 168 h, GA0060, Stomach, 7 days drug treatment, CellTiter-Glo

FC(F)(F)c1ccc(Nc2ccc3cccc(Cl)c3n2)nc1 [Comparative compound 26, 8-chloro-N-(5-(trifluoromethyl)pyridin-2-yl)quinolin-2-amine]
IC50 [1, 9]: 0.17 µM | IC50 ([1]; cell line Large intestine/Colorectum CR3085, restated in text without unit): 0.17 µM | IC50 [2, 10]: > 10 µM | IC50 ([2]; cell line stomach GA0060, restated in text without unit): > 10 µM

FC(F)(F)Oc1ccc(Nc2ccc3cccc(Cl)c3n2)cc1 [ABX464, 8-Chloro-N-(4-(trifluoromethoxy)phenyl)quinolin-2-amine]
IC50 [3]: 7.26 µM | IC50 [1, 9]: 0.08 µM | IC50 [4]: 0.87 µM | IC50 [2, 10]: 0.6 µM | IC50 (LI0612 cell line (Liver)): 4.75 µM | IC50 (LU0387 cell line (Lung)): 9.49 µM | IC50 (LU2511 cell line (Lung)): 7.11 µM | IC50 [5]: 9.63 µM | IC50 [6]: 3.44 µM | IC50 [7]: 6.2 µM | IC50 [8]: 3.71 µM
